Patent US20140179521A1, “COMPOSITIONS INCORPORATING HYTd” (Agrinos AS, priority 2012, published 2014)

Legend:
Assay type in all cases: in vivo
[1] = tested on: potato variety Maris Piper; experiment: Potato field experiment, tuber yield
small grain cereals = experiment: Small grain cereal replicated field experiments, grain yield; conditions: applied topically at growth stage 37
Mildew = experiment: Small grain cereal replicated field experiments, mildew level / disease control; conditions: small grain cereals
Streptomyces scabies = experiment: Potato field experiment, expression of Streptomyces scabies; conditions: potato Maris Piper, field plots, treatment applied at planting
Rhizoctonia solani = experiment: Potato field experiment, expression of Rhizoctonia solani
[2] = potato Maris Piper, field plots, treatment applied at planting
[3] = potatoes, in-furrow application, field observations

SMILES: CO/C=C(/C(=O)OC)c1ccccc1Oc1cc(Oc2ccccc2C#N)ncn1 [azoxystrobin]
- Yield t/ha [1, 2]: 62.17 t/ha
- effect on yield (in words) [1, 3]: little direct yield increase
- Yield t/ha (small grain cereals): 10.44 t/ha
- disease control / period of disease suppression (in words) (Mildew): significant levels of disease control
- Mildew level 7 days after treatment (Mildew; 7 days after treatment): 4%
- Mildew level 21 days after treatment (Mildew; 21 days after treatment): 11%
- S. scabies (Streptomyces scabies): 46%
- R. solani (Rhizoctonia solani; [2]): 2%
- control of Rhizoctonia (in words) (Rhizoctonia solani; [3]): high level disease control
